Patent US6818146B2, “Chemical base for engine coolant/antifreeze with improved thermal stability properties” (Shell Oil Company, priority 2001, dated 2004)
Read-outs that look alike come from different tables or passages of the source.

Assays:
[1] = Physical property data; assay type: physicochemical
[2] = Toxicity LD50 data and review of MSDS
[3] = ASTM D1177 freeze point; assay type: physicochemical
Excerpt: FIG. 1 illustrates the aqueous solution freeze point characteristics of the 1,3-propanediol and GM 6043 (EG). […] This could be an indication that actual protection against hard, damaging freezing is actually better, approaching the effective protection point of the EG-based product. […] We feel that the antifreeze properties of the chemistry are acceptable. Indeed a 50% solution would provide adequate protection against freezing in most geographies. TC in FIG. 1 is an internal designation for the PDO aqueous solutions at 50, 55, and 60 volume percent PDO.

[4] = Extended aging / oxidation comparison on D-4340 rig at 150° C.; assay type: physicochemical; details: 150° C. for 60 Days, two fully formulated coolant inhibition packages
[5] = 25° C.; cited from earlier work

Structure (SMILES) | Specific Gravity, 20° C. ([1]; 20° C.) | Viscosity ([1]; 20° C.) [cP] | Toxicity [2] | State at the reported freeze point [3] | Degradation in terms of pH value and formation of oxidation by-products [4] | Specific Gravity, 20° C. [1] | Viscosity [1] [cP] | Thermal Conductivity [5] [BTU/hr-ft-F]
OCCCO [PDO, 1,3-propanediol] | 1.0526 | 52 | PDO offers low | soft and slushy | PDO degraded less |  |  | 
OCCO [EG, ethylene glycol] |  |  |  |  |  | 1.115 | 17 | 
CC(O)CO (stereo not shown) [PG, propylene glycol] | 1.032 | 49 |  |  |  |  |  | 0.119
